26 compounds from ChEMBL document CHEMBL2331154 (J Med Chem, 2013) can be followed below.

For series [1], the target named is T1, Heat shock protein HSP 90-alpha (Homo sapiens, UniProt P07900). The series is described as follows: Binding affinity to recombinant Hsp90 alpha (unknown origin) by surface plasmon resonance.
Series [2] relates to HeLa. The series is described as follows: Increase in Hsp70 level in human HeLa cells at 50 uM after 24 hrs by Western blot analysis. The series is classed as functional, cell-based. On the technique in general: A western blot detects proteins with antibodies after separation by electrophoresis.
Series [3] addresses T1, Heat shock protein HSP 90-alpha. In words: Inhibition of Hsp90 alpha in human HeLa cells assessed as reduction in p-AKT level at 50 uM after 24 hrs by Western blot analysis. It is filed as cell-based.
In series [4] the test system is HeLa. The series is described as follows: Cytotoxicity against human HeLa cells assessed as cell viability up to 100 uM after 24 hrs by MTT assay. The series is classed as cell-based. On the technique in general: Formazan colour is commonly taken as a measure of viable cells.
The target in series [5] is T1, Heat shock protein HSP 90-alpha. The series is described as follows: Inhibition of Hsp90 alpha in human HeLa cells assessed as reduction in ERK1/ERK2 level at 50 uM after 24 hrs by Western blot analysis. It is filed as cell-based.
Series [6] shares this target. The series is described as follows: Inhibition of Hsp90 alpha (unknown origin) ATPase activity after 60 mins by fluorimetry.
Series [7] has the same target. In words: Inhibition of Hsp90 alpha (unknown origin) assessed as thermal-induced citrate synthase aggregation at 0.3 uM by fluorimetry relative to control.
The target is the same in series [8]. In words: Inhibition of Hsp90 alpha (unknown origin) assessed as thermal-induced citrate synthase aggregation at 4 fold molar excess by fluorimetry.

Activity calls are given as the source filed them. The calls are words filed in the database; no cut-off is given here.

Turning to `O=C(OC[C@H]1O[C@@H](O[C@@H]2C[C@@]3(O)CO[C@H]4OCC[C@@H]2[C@H]43)[C@H](O)[C@@H](O)[C@@H]1O)c1ccc(O)cc1`, in series [1], the Kd (commonly a measure of binding affinity in units of concentration) is “Not Active”.

`O=C(O[C@@H]1C[C@@](O)(CO)[C@H]2[C@H](O[C@@H]3O[C@H](CO)[C@@H](O)[C@H](O)[C@H]3O)OC=C[C@H]21)c1ccc(O)cc1`: in series [1] (read-out: Kd), the Kd stood at 0.031 µM.

For `CO[C@H]1C[C@@H]2[C@@H]3[C@@H](OC[C@]3(O)C[C@H]2OC(=O)c2ccc(O)cc2)O1`, in series [1], the Kd entry is given as “Not Active”.

As for `COc1cc(/C=C/C(=O)O[C@H]2[C@@H]3C=CO[C@@H](O[C@@H]4O[C@H](CO)[C@@H](O)[C@H](O)[C@H]4O)[C@@H]3[C@@]3(CO)O[C@@H]23)ccc1O`, the Kd entry in series [1] is on record as “Not Active”.

In the case of `O[C@@H]1C[C@@]2(O)CO[C@H]3OCC[C@@H]1[C@H]32`, in series [1], the Kd result is listed as “Not Active”.

Turning to `O=C(O[C@@H]1C=C(CO)[C@@H]2[C@H](O[C@@H]3O[C@H](CO)[C@@H](O)[C@H](O)[C@H]3O)OC=C[C@@H]21)c1ccc(O)cc1`, in series [1], the Kd entry was “Not Active”.

Regarding `COc1cc(/C=C/C(=O)O[C@@H]2C[C@@](O)(CO)[C@H]3[C@H](O[C@@H]4O[C@H](CO)[C@@H](O)[C@H](O)[C@H]4O)OC=C[C@H]32)ccc1O`, the Kd entry in series [1] is reported as “Not Active”.

As for `O=C(/C=C\c1ccc(O)cc1)O[C@@H]1C[C@@](O)(CO)[C@H]2[C@H](O[C@@H]3O[C@H](CO)[C@@H](O)[C@H](O)[C@H]3O)OC=C[C@H]21`, in series [1] (read-out: Kd), the Kd was 0.073 µM.

For `O=C(O[C@@H]1C[C@@]2(O)CO[C@@H]3CC1C2[C@H](O[C@@H]1O[C@H](CO)[C@@H](O)[C@H](O)[C@H]1O)O3)c1ccc(O)cc1`, in series [1], the Kd entry is “Not Active”.

Take `O=C(O[C@H]1[C@@H]2CCO[C@@H](O[C@@H]3O[C@H](CO)[C@@H](O)[C@H](O)[C@H]3O)[C@@H]2[C@@]2(CO)O[C@@H]12)c1ccc(O)cc1`: the Kd in series [1] (read-out: Kd) was found to be 0.016 µM.

For `O=C(OC[C@H]1O[C@@H](O[C@@H]2OC=C[C@@H]3[C@H]2[C@](O)(CO)C[C@H]3OC(=O)c2ccc(O)cc2)[C@H](O)[C@@H](O)[C@@H]1O)c1ccc(O)cc1`, the Kd in series [1] (read-out: Kd) amounted to 0.139 µM.

As to `COc1ccc(C=CC(=O)O[C@@H]2C[C@@](O)(CO)[C@H]3[C@H](O[C@@H]4O[C@H](CO)[C@@H](O)[C@H](O)[C@H]4O)OC=C[C@H]32)cc1O` (mixture of isomers), the Kd result in series [1] is given as “Not Active”.

Turning to `O=C(C=Cc1ccc(O)cc1)O[C@@H]1C[C@@](O)(CO)[C@H]2[C@H](O[C@@H]3O[C@H](CO)[C@@H](O)[C@H](O)[C@H]3O)OC=C[C@H]21` (mixture of isomers), in series [1], the Kd entry is listed as “Not Active”.

In the case of `COc1ccc(C=CC(=O)O[C@@H]2C[C@@](O)(CO)[C@H]3[C@H](O[C@@H]4O[C@H](CO)[C@@H](O)[C@H](O)[C@H]4O)OC=C[C@H]32)cc1` (mixture of isomers), the Kd entry in series [1] is “Not Active”.

Consider `C[C@H]1[C@H]2[C@H](O[C@@H]3O[C@H](CO)[C@@H](O)[C@H](O)[C@H]3O)OC[C@](C)(O)[C@H]2C[C@@H]1O` [ADENOSMOSIDE], for which the Kd entry in series [1] is reported as “Not Active”.

With `O=C(O[C@H]1[C@@H]2C=CO[C@@H](O[C@@H]3O[C@H](CO)[C@@H](O)[C@H](O)[C@H]3O)[C@@H]2[C@@]2(CO)O[C@@H]12)[C@H]1[C@H](C(=O)O[C@H]2[C@@H]3C=CO[C@@H](O[C@@H]4O[C@H](CO)[C@@H](O)[C@H](O)[C@H]4O)[C@@H]3[C@@]3(CO)O[C@@H]23)[C@@H](c2ccc(O)cc2)[C@@H]1c1ccc(O)cc1` [ARGENTEOSIDE A], in series [1] (read-out: Kd), the Kd amounted to 0.014 µM. Also, in the series on HeLa [2], the result was inactive. Further, the inhibition result in series [3], in series [5], in series [7] and in series [8] was “Active” throughout. The Activity result in the series on HeLa [4] was “Non-toxic”. Also, in series [6], the inhibition result was “Dose-dependent effect”.

Turning to `O=C(O[C@H]1[C@@H]2C=CO[C@@H](O[C@@H]3O[C@H](CO)[C@@H](O)[C@H](O)[C@H]3O)[C@@H]2[C@@]2(CO)O[C@@H]12)[C@H]1[C@H](c2ccc(O)cc2)[C@H](C(=O)O[C@H]2[C@@H]3C=CO[C@@H](O[C@@H]4O[C@H](CO)[C@@H](O)[C@H](O)[C@H]4O)[C@@H]3[C@@]3(CO)O[C@@H]23)[C@H]1c1ccc(O)cc1` [ARGENTEOSIDE B], the Kd in series [1] (read-out: Kd) came out at 0.05 µM. For the same compound, the inhibition result in series [6] was “Dose-dependent effect”.

With `O=C(O[C@@H]1C[C@@]2(O)CO[C@H]3O[C@H](O)C[C@@H]1[C@H]32)c1ccc(O)cc1` [CATALPIN], the Kd in series [1] (read-out: Kd) came to 5.92 µM.

Turning to `O=C(O[C@H]1[C@@H]2C=CO[C@@H](O[C@@H]3O[C@H](CO)[C@@H](O)[C@H](O)[C@H]3O)[C@@H]2[C@@]2(CO)O[C@@H]12)c1ccc(O)cc1` [CATALPOSIDE], the Kd in series [1] (read-out: Kd) amounted to 0.012 µM. The inhibition result in series [6] was “Dose-dependent effect”.

Consider `COc1cc(C(=O)O[C@H]2[C@@H]3C=CO[C@@H](O[C@@H]4O[C@H](CO)[C@@H](O)[C@H](O)[C@H]4O)[C@@H]3[C@@]3(CO)O[C@@H]23)ccc1O` [PICROSIDE II], for which the Kd result in series [1] was “Not Active”.

`O[C@H]1[C@@H]2CCO[C@@H]3OC[C@@](O)([C@@H]32)[C@@H]1O` [REHMAGLUTIN A]: the Kd in series [1] (read-out: Kd) was 2.39 µM.

Consider `C=C[C@H]1[C@H](O[C@@H]2O[C@H](CO)[C@@H](O)[C@H](O)[C@H]2O)OC=C(C(=O)OC)[C@H]1CC=O` [SECOLOGANIN], for which the Kd entry in series [1] is listed as “Not Active”.

`O=C(/C=C/c1ccc(O)cc1)O[C@H]1[C@@H]2C=CO[C@@H](O[C@@H]3O[C@H](CO)[C@@H](O)[C@H](O)[C@H]3O)[C@@H]2[C@@]2(CO)O[C@@H]12` [SPECIOSIDE]: the Kd in series [1] (read-out: Kd) stood at 0.026 µM. Besides, the inhibition result in series [6] is “Dose-dependent effect”.

As to `O=C(/C=C/c1ccc(O)cc1)O[C@H]1[C@@H]2C=CO[C@@H](O[C@@H]3O[C@H](CO)[C@@H](O)[C@H](O)[C@H]3O)[C@@H]2[C@@](O)(CO)[C@@H]1O` [STEREOSPERMOSIDE], the Kd result in series [1] is “Not Active”.

On to `C=C[C@H]1[C@H](O[C@@H]2O[C@H](CO)[C@@H](O)[C@H](O)[C@H]2O)OC=C2C(=O)OCC[C@H]21` [SWEROSIDE], for which the Kd result in series [1] is given as “Not Active”.

For the compound `O=C(/C=C/c1ccc(O)c(O)c1)O[C@@H]1C2C=CO[C@H](O[C@@H]3O[C@H](CO)[C@@H](O)[C@H](O)[C@H]3O)C2[C@]2(CO)O[C@H]12` (stereo partly specified) [VERMINOSIDE], the Kd in series [1] (read-out: Kd) was 0.348 µM.
